Entries after “also recorded” stand apart in the source; their conditions may differ.

Experimental findings from patent US10953113B2, “Imaging agents and methods of use” (The Board of Regents of the University of Oklahoma, priority 2016, dated 2021) are described below.

Data set [1] relates to infarct region in brain (MCAO). The data set can be described thus: PET/SPECT imaging in middle cerebral artery occlusion (MCAO) mouse model of brain stroke. Format: in vivo. The conditions noted are these: for Uptake in stroke regions: MCAO mouse model, FIG. 13, PET or SPECT. The procedure:
Fasted mice are anesthetized with 1.5% isoflurane in a stream of O2:N2 mixture (30:70, 1 L/min) and blanketed in a thermostatic blanket at 37° C. […] The common carotid artery is occluded by a micro-clip. The left ECA is ligated, coagulated, and cut distal to the cranial thyroid artery. A 15 mm monofilament nylon suture (6-0, dia of heat-rounded tip=0.2-0.3 mm) is inserted into the ECA and gently advanced through the ICA until its tip has occluded the origin of the MCA. Correct placement of the suture is indicated by a sudden drop of the local cortical blood flow in the left MCA territory to 10-20% of basal flow. CBF is monitored by non-invasive laser Doppler flowmetry (Moor Instruments). A sustained reduction of >80% is indicative of successful MCAO. The monofilament is secured in place with a ligature and the skin incision is closed. The monofilament suture is left in place for permanent MCAO, but for transient MCAO, the occluding suture is removed after 1 h by anesthetizing the mouse and re-opening the wound.
^18F-FGA was found, in the present work, to accumulate in the brain of a mouse model of brain stroke created by middle cerebral artery occlusion (MCAO). To test ^18F-FGA for imaging infarct in brain, we employed a mouse model of permanent MCAO. PET was performed after 2 h of MCAO surgery. Approximately 1 mCi of ^18F-FGA was injected (i.v.) and a 20 min image was acquired after 1 h of injection. […] We also performed 1 day post-MCAO imaging of brain excised after 2 h of ^18F-FGA injection.

The next data set deals with rats. The data set can be described thus: ISO-induced myocardial injury in rats (ECG, cardiac troponin I, corticosterone, TTC staining). Format: in vivo, Sprague Dawley rats. Here is the method: (§1) Male Sprague Dawley rats (250-300 g) were purchased from Harlan (Indianapolis, Ind., USA), housed in regular light/dark cycles and allowed to acclimatize for at least 5 days prior to the experiments. Myocardial injury was induced by administering a sterile aqueous solution of ISO at a dose rate of 150 mg/kg bodyweight. The drug was intraperitoneally injected on two consecutive days.
Lead 1 ECG of isoflurane-anesthetized rats was recorded by placing negative electrode on the right front paw, positive electrode on the left front paw, and ground lead on to the left hind paw. The electrodes were secured to the lead (CB Sciences C-ISO-255), bioamplifier (ETH-225), and analog to digital converter (iWorx 118) and the signal was recorded using Labscribe 2.0 software (iWorx, Dover, N.H.). Before analysis of raw data, the signal was filtered to eliminate 60 Hz mains frequency.
Blood samples were collected before euthanasia and plasma was separated by centrifugation (5,000 rpm for 5 min). We determined the levels of cardiac TnI (cTnI) in plasma by using a rat-specific enzyme-linked immunoassay kit obtained from Life Diagnostics (West Chester, Pa.). The plasma samples were diluted 1:2 with PBS before estimation.
We measured the concentration of stress hormone corticosterone in undiluted plasma by using an ELISA kit from Cayman Chemicals (Ann Arbor, Mich.). Corticosterone is the only glucocorticoid present in rats.
After the final session of imaging and blood sample collection, the rats were euthanized and their hearts were immediately collected and frozen at −20° C. for 2 h. The hearts were sectioned into 2 mm slices and placed in 1% solution of TTC in PBS at 37° C. with intermittent shaking. After 30 min of staining, the TTC was removed and replaced with 10% buffered fomialin overnight.

Data set [2] can be described thus: Biodistribution of ^18F-FGA in normal mice. Format: in vivo, CD1 mice. The conditions noted are these: for Biodistribution, Blood / Biodistribution, Bone / Biodistribution, Brain / Biodistribution, Heart / Biodistribution, Kidney / Biodistribution, Liver / Biodistribution, Lung / Biodistribution, Muscle / Biodistribution, Spleen: i.v. 0.1 mCi, decay-corrected, mean ± SD. Here is the method:
All animal work described herein was performed according to the NIH Animal Use and Care Guidelines and was approved by the institutional IACUC. Nine male and three female CD1 mice (20-36 g) were obtained from Harlan Laboratories (Indianapolis, Ind.), and housed in a controlled environment with 12 h day/night cycle. The mice were allowed to acclimatize for at least 1 week before inclusion in the study. On the day of imaging, the animals were anesthetized with 2-3% isoflurane in oxygen stream. Approximately 100 μCi of ^18F-FGA was injected intravenously in the tail vein. The animals were placed in a cage with absorbent padding until biodistribution. Briefly, the mice were euthanized after 1 or 3 hours post injection by an over-dose of isoflurane (4%) followed by cervical dislocation. Various organs were excised, washed with saline, weighed, and appropriate tissue samples were counted in an automated gamma counter (Packard Cobra II Auto Gamma, Perkin Elmer, Boston, Mass.). Total blood volume, bone, and muscle mass were estimated as 5.7%, 10% and 40% of body weight, respectively. A diluted sample of injected ^18F-FGA served as a standard for comparison.
Results of a whole body distribution analysis of ^18F-FGA in various organs of normal mice 1 and 3 h after injection are shown in Table 1. Normal healthy mice were injected with ^18F-FGA (0.1 mCi) via the tail vein and the mice were euthanized at 1 h and 3 h post injection. […] All other organs accumulated less than 0.5% of the injected dose/g tissue. The concentration of ^18F-FGA in circulation was also negligible.
We injected 0.1 mCi (50 μl) of ^18F-FGA in normal healthy mice (n=8), and collected organs for counting at 1 h post-injection. The accumulation in the brain was less than about 0.1% and in all major organs was below 0.5% of the injected dose and it cleared via renal system. […] Rapid clearance and absence of accumulation in healthy cerebral tissue indicated effectiveness of ^18F-FGA for clear infarct imaging.

Data set [3] is described as follows: Circulation kinetics of ^18F-FGA in mice. The conditions noted are these: i.v., elimination phase, 30-180 minute time points. Type of data set: in vivo, CD-1 mice. The procedure:
Five male CD-1 mice were injected with 100 μCi of ^18F-FGA intravenously via the tail vein. At 0, 30, 60, 90, 120, and 180 minutes post injection, 25-50 μl of blood was sampled from the retro-orbital sinus. Blood was weighed and counted in an automated gamma counter (Packard Cobra II Auto Gamma, Perkin Elmer, Boston, Mass.). One mouse was excluded from the study based on macroscopic observations about the abnormal kidney morphology upon necropsy.
For statistical comparisons we employed GraphPad Prism 6 Software (GraphPad, La Jolla, Calif.). Two group comparisons were performed using a Student's T Test, comparisons between 3 or more groups were done using one way ANOVA. Pharmacokinetic parameters were calculated from the semi-log plot of time-activity curves using method of residuals.
Circulation kinetics of ^18F-FGA was studied over the course of 3 h. As shown in FIG. 6 (left panel), by 30 min, more than 99% of the injected dose was removed from circulation. […] Pharmacokinetic parameters were calculated from the 30-180 minute time points and are presented in tabular form (FIG. 6, right panel).

Data set [4] relates to ISO-induced myocardial injury. The experiment in a line: PET/SPECT imaging in rat model of ISO-induced myocardial damage. Type of data set: in vivo, Sprague Dawley rats. The conditions noted are these: for Delineation of ISO-induced myocardial pathology by imaging: control vs ISO-treated rats. The procedure:
as §1
In addition to the post-injury imaging, baseline images were also acquired before inducing ISO-injury. […] All injections were given intravenously in the tail vein of anesthetized (2% isoflurane-oxygen mixture) rats and imaging was performed at indicated times after the injections. Through the imaging period, anesthesia was maintained with a 2% isoflurane-oxygen mixture. For PET, the rats were positioned supine in a gantry of a PET-CT dual modality machine (Gamma Medica Ideas, Northridge, Calif.). A fly-mode CT of thoracic region was acquired before a 20 min list mode PET data acquisition. SPECT imaging was performed on a NanoSPECT machine (Trifoil Imaging, Chatsworth, Calif.) by helical SPECT acquisition of the thoracic region in 24 frames of 60 seconds each. After imaging, the rats were allowed to wake up and kept in their cage until the time of euthanasia.
The acquired PET images was reconstructed by filtered back projection algorithm and fused with the CT to generate a composite PET-CT image. SPECT acquisitions were reconstructed with HiSPECT reconstruction algorithm provided with the system.
Standard uptake value (SUV) was calculated by defining a three-dimensional region of interest (ROI) around the heart using the CT image. Background was determined by placing a spherical ROI at the same level as the 4th sternebrae in the XY plane in the posterior medial area of the left lung. Mean counts per voxel for the heart were normalized to mean background counts per voxel.

The mark [5] stands for this setting: normal healthy mice (n=8), 0.1 mCi, 1 h post-injection.
[6] abbreviates: normal mice, 1 and 3 h after injection.

In the case of `C/C(=N\[O-])[C@@H](C)[N-]CC(C)(C)C[N-][C@H](C)/C(C)=N/O.[O]=[99Tc+3]` (racemic) [HMPAO, reference compound], the “Uptake in stroke regions” value in data set [1] is recorded as “deficient uptake in stroke regions”.

Turning to `CC(C)NCC(O)c1ccc(O)c(O)c1` (stereo not shown) [ISO, isoproterenol], the “Cardiac troponin in plasma” value with rats (ISO-treated rats (n=4), 150 mg/kg i.p. on two consecutive days, plasma 24-48 hours after ISO) was determined as 63 pg/mL. In addition, the “Plasma level of corticosterone” value in the data set with rats (ISO-treated rats (n=6), 150 mg/kg i.p. on two consecutive days) is 34.1 ng/mL. Also, in the data set on rats (rats, after two consecutive days of ISO injection), the “Heart histology (Evans blue, TTC staining)” value is “generalized and extensive necrosis”. Also, the “ST duration (ECG)” value in the data set with rats (rats, over the course of ISO treatment) was “increased”. Further, the “R-R interval (ECG)” value with rats (rats, same day of ISO treatment) is “significantly decreased”.

For the compound `O=C(O)[C@@H](O)[C@@H](O)[C@H](O)[C@@H]([18F])C(=O)O` [^18F-FGA, 2-deoxy-2-[^18F]fluoroglucaric acid], in data set [2] (setting [5]), the “Accumulation in all major organs” value was “below 0.5 % of the injected dose” and the “Accumulation in the brain” value is recorded as “less than 0.1 % of the injected dose”. Further, in data set [2] (setting [6]), the “Accumulation in all other organs (other than renal system)” value is listed as “less than 0.5 % of the injected dose/g tissue”, the Concentration in circulation result is given as “negligible” and the “Fate of the majority of injected radioactivity” value is on record as “excreted via the renal system”. Moreover, in data set [2] (normal mice, 1 hour (n = 8)), the “Biodistribution, Blood” value was 0.145 ± 0.095 % ID/g tissue; the “Biodistribution, Bone” value amounted to 0.321 ± 0.128 % ID/g tissue; the “Biodistribution, Brain” value turned out to be 0.039 ± 0.027 % ID/g tissue; the “Biodistribution, Heart” value worked out at 0.056 ± 0.027 % ID/g tissue. In addition, in data set [2] (normal mice, 1 hour (n = 8)), the “Biodistribution, Kidney” value is recorded as 4.226 ± 3.281 % ID/g tissue; the “Biodistribution, Liver” value was 0.417 ± 0.128 % ID/g tissue; the “Biodistribution, Lung” value worked out at 0.192 ± 0.087 % ID/g tissue; the “Biodistribution, Muscle” value amounted to 0.049 ± 0.025 % ID/g tissue. Besides, the “Biodistribution, Spleen” value in data set [2] (normal mice, 1 hour (n = 8)) is recorded as 0.074 ± 0.036 % ID/g tissue. Further, in data set [2] (normal mice, 3 hour (n = 4)), the “Biodistribution, Blood” value is listed as 0.051 ± 0.025 % ID/g tissue; the “Biodistribution, Bone” value is recorded as 0.727 ± 0.773 % ID/g tissue; the “Biodistribution, Brain” value was found to be 0.014 ± 0.007 % ID/g tissue; the “Biodistribution, Heart” value turned out to be 0.018 ± 0.01 % ID/g tissue. For the same compound, in data set [2] (normal mice, 3 hour (n = 4)), the “Biodistribution, Kidney” value was determined as 0.698 ± 0.378 % ID/g tissue; the “Biodistribution, Liver” value is recorded as 0.087 ± 0.027 % ID/g tissue; the “Biodistribution, Lung” value was 0.104 ± 0.073 % ID/g tissue; the “Biodistribution, Muscle” value is recorded as 0.03 ± 0.018 % ID/g tissue. Further, the “Biodistribution, Spleen” value in data set [2] (normal mice, 3 hour (n = 4)) is recorded as 0.033 ± 0.015 % ID/g tissue. Also, in data set [3], the Elimination rate constant worked out at 0.83 h⁻¹ and the Half-life entry is “approximately 35 minutes”. Besides, the “Accumulation in cardiac tissue of ISO-treated rats” value in data set [4] (PET, 1 h post-injection, after two consecutive days of ISO) is reported as “accumulated large amounts”. Further, the “Time to accumulation in ISO-treated hearts” value in data set [4] (PET, ISO-treated rats) is reported as no more than 1 h. Besides, the “Contrast between accumulation in myocardial tissue and non-target tissues” value in data set [4] (PET, ISO-treated rats, 4 h post-injection) is “very pronounced”. In addition, the “Uptake in normal (baseline/control) heart” value in data set [4] (PET, rats without ISO treatment) is “negligible uptake; also recorded: no detectable signal”. In addition, the “Delineation of ISO-induced myocardial pathology by imaging” value in data set [4] is “clearly diagnosed ISO-induced cardiomyopathy”. In data set [1] (1 day post-MCAO, brain excised 2 h after injection), the “Ipsilateral vs contralateral accumulation in excised brain” value is reported as “higher accumulation in the ipsilateral side than the contralateral side”. Also, the “Uptake in stroke regions” value in data set [1] is given as “accumulates in stroke regions of ipsilateral cerebral hemisphere”. The “Accumulation in ipsilateral side of brain” value in data set [1] (permanent MCAO, PET after 2 h of MCAO, 1 mCi i.v., image 1 h after injection) is “central area of ^18F-FGA accumulation”.

Consider `[C-]#[N+]CC(C)(C)OC.[C-]#[N+]CC(C)(C)OC.[C-]#[N+]CC(C)(C)OC.[C-]#[N+]CC(C)(C)OC.[C-]#[N+]CC(C)(C)OC.[C-]#[N+]CC(C)(C)OC.[Tc]` [^99mTc-Sestamibi, ^99mTc-sesta-methoxyisobutylisonitrile, reference compound], for which the “Delineation of ISO-induced myocardial pathology by imaging” value in data set [4] was “unable to delineate ISO-induced myocardial pathology”.
